Data: patent publication US20090104705A1, “Ascorbic acid conjugates” (priority 2005, published 2009)

Tests used:
[1] = tested on: human aortic endothelial cells (HAECs); assay: MTT assay, cytotoxicity in human aortic endothelial cells; assay type: cell-based; conditions: 25 to 100 μM, up to 66 hours, 20% bovine calf serum
From the text: FIG. 13 illustrates the results of cytotoxicity studies in human aortic endothelial cells (HAECs) using the MTT assay (described below). […] The observed cytotoxic effect of HNE is relatively moderate, which is likely due to the presence of 20% bovine calf serum in the culture medium of HAECs, causing inactivation of HNE by adduction to serum proteins and other serum constituents. […] FIG. 13, panel C further illustrates the large difference in cytotoxicity between HNE and ascorbylated HNE in HAECs treated with both compounds at 75 or 100 μM for 42 hours. The results of these experiments strongly support the hypothesis that ascorbylation represents a detoxification pathway for HNE and other electrophilic LPO products.
With reference to […], Cells were grown to confluence in 96-well plates and exposed to 25, 50, 75 or 100 μM HNE or ascorbylated HNE for up to 66 hours (Panels A and B). Cell viability was assessed by spectrophotometric (590 nm) measurement of the reduction of MTT (3-[4,5-dimethylthiazol-2-yl]-2,5-diphenyltetrazolium bromide) by dehydrogenases in respiring mitochondria, and expressed as a percentage of the control (1.0% ethanol). […] The data are presented as mean of five observations (±SD). Asc-HNE=ascorbylated HNE; numbers in legends refer to μM concentrations.

[2] = tested on: ICAM-1 expression in BAECs; assay: ICAM-1 expression in BAECs by ELISA; assay type: cell-based; conditions: 25 μM, 24 hours, 20% bovine calf serum, data not shown
Protocol: The effect of HNE and ascorbylated HNE on endothelial activation also was determined. To this end, BAECs were exposed to 25 μM HNE or ascorbylated HNE for 24 hours in the presence of 20% bovine calf serum, and subsequently ICAM-1 expression was measured by ELISA. […] In contrast, HNE was reported to inhibit LPS-induced NFκB activation in human monocytic cells (Herbst et al. 1999; Page et al. 1999) and constitutive ICAM-1 expression in HUVECs (Herbst et al. 1999). […] However, unlike the incubation conditions with 20% bovine calf serum, the experiments by Herbst and colleagues were conducted in a serum-free environment in order to avoid inactivation of HNE by serum proteins (see above).

[3] = tested on: ICAM-1 expression in HUVECs; conditions: serum-free environment; cited from earlier work
[4] = Stability of ascorbyl-HNE conjugate in stored plasma; assay type: physicochemical, human
Protocol: A problem with current biomarkers of oxidative stress is the formation of ex vivo-artifacts arising from sample instability or sample handling. The presence of the ascorbyl-HNE adduct in plasma is not due to an ex vivo-artifact. Moreover, the stability of the ascorbyl-HNE adduct was confirmed to ensure that its concentration was not fluctuating as a function of time. Specifically, aliquots of a plasma sample were analyzed over a time period of one month.

[5] = tested on: ICAM-1 expression in HAECs; assay: ICAM-1 expression in HAECs by ELISA; assay type: cell-based, human; conditions: 35 μM, 24 hours, 5% bovine calf serum
From the text: This example establishes that vitamin C has the ability to abolish HPODE-induced endothelial activation. HAECs were exposed to HPODE or HPODE pretreated with ascorbate. […] Thus, vitamin C pre-treatment of HPODE leads to inactivation of HPODE with respect to its effect on ICAM-1 expression, which supports the proposition that vitamin C-induced degradation of LOOHs and subsequent ascorbylation of the resultant LPO products represents a pathway for elimination and detoxification of LOOHs and their degradation products (Scheme 2). […] As mentioned earlier, there is extensive data in the literature showing that specific LPO products elicit endothelial activation.
With reference to FIG. 14 HPODE was prepared by soybean lipoxygenase treatment of a solution of linoleic acid in phosphate buffer, pH 8.2, with stirring and air bubbling. […] The solution was acidified, and the mixture of HPODE-derived products was recovered from the aqueous solution by extraction with ethyl acetate. The combined ethyl acetate layers were washed with water to remove traces of ascorbic acid. The residue on evaporation was dissolved in 1.0 ml of ethanol, and the solution termed ‘ascorbate-treated HPODE’. […] Activation of HAECs was measured by quantifying ICAM-1 using a commercially available ELISA kit (Zhang and Frei 2001).

stability of the conjugate in plasma ([4]; 4° C.)	change in the ascorbyl-HNE conjugate concentration ([4]; plasma aliquots over one month at 4° C.) [%]	Compound	cell viability of HAECs (MTT assay) [1]	change of ICAM-1 expression compared to the vehicle control [2]	concentration at which the inhibitory effect on ICAM-1 expression was observed [3] [µM]	ICAM-1 expression compared to the vehicle control [5]
–	–	CCCCCC(O)C=CC=O (centres unmarked) [HNE, 4-hydroxy-2-nonenal]	progressive decrease in cell viability	Neither HNE nor ascorbylated HNE caused a change of ICAM-1 expression	≥ 5	–
stable for at least a month	5.2	CCCCCC1OC(O)CC1C1(O)C(=O)OC2C(O)COC21O (stereo not drawn) [ascorbyl-HNE conjugate, 3,3α,6-trihydroxy-3-(5-hydroxy 2-pentyl-tetrahydro-furan-3-yl)-tetrahydro-furo[3,2-b]furan-2-one]	not cytotoxic at any of the concentrations tested	Neither HNE nor ascorbylated HNE caused a change of ICAM-1 expression	–	–
–	–	hydroperoxy octadecadienoic acids [HPODE]	–	–	–	increase in ICAM-1 expression
